Assay results published in article PMC13382108 (Frontiers in Pharmacology, 2026).

Assay: In vivo pharmacokinetic study in rats (plasma, HPLC)
Conditions: SD rats, intragastric, FLU 40 mg/kg alone, as TF-1 (+48 mg/kg TDS) or TF-2 (+96 mg/kg TDS)
Description: A total of 25 healthy male SD rats were used. After adaptive feeding, rats were randomly divided into five groups (n = 5). […] Blood samples were placed in heparin-pretreated centrifuge tubes. Whole blood was centrifuged at 6,000 rpm for 3 min to separate plasma, which was stored at −20 °C or −80 °C for subsequent analysis. […] The mean plasma concentration-time curves were plotted. The non-compartmental model in DAS 2.1.1 software was used to calculate major pharmacokinetic parameters. The pharmacokinetic interactions after combined medication were evaluated by comparing parameters between monotherapy groups and TF combination groups.

In the case of CNCCC(Oc1ccc(C(F)(F)F)cc1)c1ccccc1 (stereo not shown) [FLU, Fluoxetine], the “t1/2z of FLU” value is reported as 6.563 h.
